Experimental findings from BindingDB's records for doi:10.1021/jm00095a003 (C.N.R.-Centro Studio Sostanze Organiche Naturali, 1992) are described below.

Test [1] addresses T1, Muscarinic acetylcholine receptor (Cavia porcellus, UniProt Q8VH26). Nature of the test: Dissociation constant at muscarinic acetylcholine receptor M3 guinea pig bladder.
Test [2] concerns the target T1, Muscarinic acetylcholine receptor. Nature of the test: Dissociation constant at muscarinic acetylcholine receptor M3 of guinea pig ileum.
Test [3] shares this target. Nature of the test: Dissociation constant at muscarinic M3 receptors of guinea pig bladder.
Test [4] shares this target. In words: Dissociation constant at muscarinic M3 receptors of guinea pig ileum.

T1 sequence (Q8VH26 whole entry): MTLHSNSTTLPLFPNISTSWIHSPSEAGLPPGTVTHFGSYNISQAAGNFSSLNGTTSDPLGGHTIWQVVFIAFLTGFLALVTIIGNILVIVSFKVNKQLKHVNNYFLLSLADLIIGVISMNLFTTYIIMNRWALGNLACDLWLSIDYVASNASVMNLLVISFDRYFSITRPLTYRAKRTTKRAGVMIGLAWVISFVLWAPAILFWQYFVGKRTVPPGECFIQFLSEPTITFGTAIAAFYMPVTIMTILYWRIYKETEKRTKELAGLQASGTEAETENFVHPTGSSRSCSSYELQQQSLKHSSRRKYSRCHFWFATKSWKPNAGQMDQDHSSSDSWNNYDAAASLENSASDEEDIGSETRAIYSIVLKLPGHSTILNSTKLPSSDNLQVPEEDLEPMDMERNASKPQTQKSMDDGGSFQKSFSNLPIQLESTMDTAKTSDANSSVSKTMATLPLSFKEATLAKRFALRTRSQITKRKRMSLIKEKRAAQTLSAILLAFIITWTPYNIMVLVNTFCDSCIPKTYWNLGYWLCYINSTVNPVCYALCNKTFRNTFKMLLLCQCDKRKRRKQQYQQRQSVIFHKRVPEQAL

What is called Kd is the constant that tells how readily two partners part at equilibrium. A high value points to lower affinity. Regarding `C[C@@H]1O[C@H](C[N+](C)(C)C)C[C@H]1O`, the Kd is 24 µM in test [1] and 1.12 µM in test [2].
As to `C[C@@H]1O[C@H](C[N+](C)(C)C)C[C@H]1F`, the Kd in test [3] turned out to be 40.7 µM; in test [4] it was 1.91 µM.
